According to patent publication US20240342121A1, “THE USE OF BETA-HYDROXYBUTYRATES FOR THE TREATMENT OR PREVENTION OF ANEURYSMS AND DISSECTIONS” (priority 2021, published 2024):
Entries after “also recorded” stand apart in the source; their conditions may differ.

Tests used:
senescent SMCs [1] = assay: Cellular viability (cytotoxicity) assay of senescent and normal SMCs; type: cell-based; settings: premature senescence by H2O2, Arsenite or Nutlin 3a, FIG. 2A
Description: (§1) FIGS. 2A-2L. (a) Cytotoxicity assay of normal smooth muscle cells (NS) and senescent smooth muscle cells (SMCs). Replicative senescent SMCs (RS) and premature senescent SMCs, stimulated by H2O2 (HP), arsenic (Ars), and Nutlin 3a (Nut) treatment were treated with βHB, s-βHB, and ABT-737. (b) Flow cytometry analysis of apoptosis by βHB or s-βHB in radiation (10 Gy)-induced senescent SMC. (c) Quantitation of apoptotic cell and senescent cell after treating βHB and s-βHB in radiation-induced senescent SMC. (d) Representative aorta image of AII-infused mice with post-treatment of ABT-737, βHB and s-βHB. (e) External diameter of abdominal aorta infused with AII and post-treated with ABT-737 βHB and s-βHB. (f) SA-βGal activity assay of the whole aorta infused with AII, and post-treated with ABT-737, KD, or KE. (g) Quantitation of senescent area on aorta of AII-infused mice, and post-treated with KD, KE and ABT-737. (h) TUNEL assay on the abdominal aorta of AII infused mice, and treated with ABT-737, βHB, or s-βHB. SM-α Actin (SMA) and DAPI are co-stained after TUNEL reaction. […]
The clearance of senescent cells that accumulate during the aneurysm development is required to reduce the volume of aneurysm plaque. Thus, the senotherapeutic potential of βHB to reverse AAA progression was evaluated. […]

[2] = in vivo
Description: We established an in vivo tolerance test of βHB and s-βHB (FIGS. 9A and 9B). […] The reduction of the inner diameter of the aortic wall is also dramatic in the treatment of s-βHB in FIG. 9F (Two-way ANOVA, ^###P<0.005, n=10).

senescent SMCs [3] = assay: Flow cytometry (FACS) apoptosis analysis, PI and Annexin V; type: cell-based; settings: FIGS. 2B, 2C
Description: as §1, with “reaction. (i) Caspase 3 activity assay on normal SMCs (NC) treated with βHB, or s-βHB, and ABT-737 comparing to normal cells pretreated with Nutlin-3a. (j) Caspase 3 activity assay on senescent SMCs (SNC) treated with βHB, or s-βHB, and ABT-737 compared to senescent cells pretreated with pifithrin-α.” for “reaction.”

CaCl2-induced AAA [4] = assay: CaCl2-induced AAA animal model, post-treatment; type: in vivo, mouse; settings: n=10, FIG. 5C
[5] = test system: angiotensin II (AII)-induced AAA; assay: AII-induced AAA mouse model, post-treatment; type: in vivo
Description: To determine if senescence is a major cause of aneurysm development, the association between senescence and aneurysms using the angiotensin II (AII)-induced AAA model was investigated. Mice were infused AII for four weeks using osmotic mini-pump implantation into Apoe^−/− transgenic mouse.
To investigate the therapeutic potential of ketotherapy for abdominal aortic aneurysm (AAA), Ketogenic-diet (KD) and Ketone-ester (KE) were provided to angiotensin II (AII)-induced mouse model of AAA (FIG. 6). […] After completing AII infusion, the mice were post-treated with KD and KE for two to four weeks.
To investigate the time-dependent reduction of aorta diameter, the inner diameter of the aorta using ultrasound analysis was measured.

[6] = test system: angiotensin II (AII)-induced AAA; assay: AII-induced AAA mouse model, post-treatment; type: in vivo; settings: injection every other day for two weeks, FIG. 2E
CaCl2-induced AAA [7] = assay: CaCl2-induced AAA animal model, post-treatment; type: in vivo, mouse
Description: FIGS. 5A-5J. (a) Representative image of aorta which developed CaCl2)-induced AAA, and post-treated with KD, KE, βHB, s-βHB, or ABT-737. KD is provided to mice for 4 weeks, KE is administrated with drinking water, βHB, s-βHB or ABT-737 are IP injected for 2 weeks with 48h intervals. (b) Incidence of AAA by CaCl2) treatment and proportion of mice recovered from the AAA after post-treatment of KD, KE, βHB and s-βHB for 2 weeks. (c) Time-dependent observation of inner diameter after CaCl2) treatment and post-treatment of KD or KE (28˜56 days after surgery). (d) Comparison of ultrasound images of CaCl2)-induced AAA to the identical aorta post-treated with βHB for 2 weeks. (e) H&E staining of aorta from the mice developed with CaCl2)-induced AAA, and post-treated with KD, KE, βHB, and s-βHB. (f) SA β-Gal activity assay on aorta which developed CaCl2)-induced AAA, and post-treated with KD, KE, βHB, s-βHB, or ABT-737. (g) Quantitation of senescent area on aorta developed with CaCl2)-induced AAA, and post-treated with KD, KE, βHB, s-βHB. (h) Verhoeff Van Gieson/EVG staining of abdominal aorta developed with CaCl2)-induced AAA, post-treated with KD, KE, βHB and s-βHB. (i) Average number of elastic fibers on abdominal aorta presented at FIG. 5H. (j) Measurement of Pulse Wave Velocity (PWV) on CaCl2)-infused mice with post-treatment of KD, KE, βHB, and s-βHB.
To confirm the possibility that the therapeutic effect of βHB on AAA is not only applied to AII-induced AAA, the CaCl2)-induced AAA animal model was also examined as well (FIG. 5A).
To further validate the therapeutic efficacy of s-βHB on aneurysms, we used a CaCl2-induced AAA animal model as well as an angiotensin II infusion model. […] Two-way ANOVA, s-βHB vs βHB, #P<0.01, n=10. Since the elimination of senescent SMCs is critical for the recovery of AAA, we investigated that s-βHB is also effective to remove senescent cells in CaCl2)-induced aneurysms. […] Student's T-test for s-βHB vs βHB, ^#P<0.05, n=8.

[8] = test system: Oct4 overexpressed senescent SMCs; assay: Oct4 overexpressed senescent SMCs (SA β-Gal, Western blot); type: cell-based; settings: Oct4 overexpression by CRISPR-dCas9-VP64, FIG. 14A
Description: FIGS. 14A-14B show (a) SA β-Gal activity on Oct4 overexpressed SMCs with or without βHB treatment (2 days). Irradiated SMCs were infected by Lentivirus containing Crispr-dCas9-VP64_Oct4 plasmid prior to treating βHB. The arrow indicates localized senescent cell mass. (b) Western blot analysis after lentivirus (Crispr-dCas9-VP64_Oct4) infection into senescent SMCs without βHB treatment for 1 day or 2 days.
We proposed that Oct4 upregulation in senescence forms senescent spheroid-like cell mass and asymmetric configuration of aneurysms. To validate our central hypothesis, we overexpressed Oct4 in senescent SMCs using the CRISPR-dCas9-VP64 system to determine the role of Oct4. […] Localized increase of senescence may be highly associated with asymmetric dilation of aneurysms. […] We supposed that βHB prevents or reverses Oct4-induced senescence of SMCs, consequently reducing the size of aneurysms. To investigate the role of βHB in aneurysms, we assess the possibility of cellular reprogramming in senescent SMCs in the condition of Oct4 overexpression. […] In particular, a moderate increase of FAP (Fibroblast Activation Protein) provides a potential for reprogramming resulting in transdifferentiation of SMCs to myofibroblast. Recovered SM22 expression in Oct4 overexpressed senescent SMCs supposed that βHB converts the Oct4 function in dedifferentiation into a reprogramming-related role. We considered an βHB-induced epigenetic alteration of senescent cells contributing to Oct4-dependent cellular reprogramming based on this unique observation.

In the case of `C[C@H](O)CC(=O)O` [s-βHB, (S)-3-hydroxybutyrate], the “number of senescent SMCs versus normal SMCs” value (senescent SMCs [1]) is reported as “selectively reduced the number of senescent SMCs and not normal SMCs; also recorded: significantly reduced”, the half-life [2] is reported as 120 min and the “apoptosis of senescent SMCs” value (senescent SMCs [3]) is reported as “more effectively than βHB”. The “time-dependent reduction of the external diameter of the aortic wall” value (CaCl2-induced AAA [4]) was “more effective than βHB”, the “TUNEL assay, apoptosis of senescent plaque in the aneurysm” value ([5]; FIG. 2H) was “induced targeted apoptosis of senescent plaque” and the lesion area ([5]; FIG. 9G) was “relatively more effective than βHB”. For the same molecule, the “body weight and lipids levels” value ([5]; FIGS. 9H-9J) was “no significant alteration”, the “recovery rate of aneurysms” value ([5]; compared to βHB) was “significant improvement in the recovery rate of aneurysms compared to the βHB treatment” and the “AAA rate after post-treating” value ([5]; incidence of AAA by angiotensin II infusion 67%, n=10, FIG. 9D) was 27%. For the same molecule, the “reduction of the inner diameter of the aortic wall” value ([5]; n=10, FIG. 9F) was “dramatic”, the “external diameter of the abdominal aorta” value [6] was “significantly reduced; also recorded: strongly reduced” and the “recovery from CaCl2-induced AAA” value (CaCl2-induced AAA [7]; FIGS. 5A and 5B) was “effectively reversed aneurysms”. For the same molecule, the “senescent cells, SA β-gal assay” value (CaCl2-induced AAA [7]; FIGS. 5F and 5G) was “significantly reduced senescent cells” and the “localized senescence, SA β-Gal activity” value [8] was “significantly reverses or prevents the development of localized senescence”.
